Experimental data reported in paper PMC5428058, “Local delivery of novel MRTF/SRF inhibitors prevents scar tissue formation in a preclinical model of fibrosis” (Scientific Reports, 2017).
pIC50: −log10 of the molar value.

Legend:
[1] = test system: human conjunctival fibroblasts; test: fibroblast-populated collagen contraction assay (human); type: cell-based; settings: for pIC50: human conjunctival fibroblasts in collagen type I matrix, 7 days
Method: We screened two candidate MRTF/SRF pathway inhibitors, CCG-222740 and CCG-203971, using detached three-dimensional fibroblast-populated collagen gels[56], [57]. Human or rabbit conjunctival fibroblasts were seeded in a collagen Type I matrix (First Link UK Ltd, Birmingham, UK) at a concentration of 0.7 × 10^4 cells/ml. The fibroblast-populated collagen gel mixture was cast into the wells of MatTek dishes (MatTek Corp, MI, USA). The gels were detached from the edges of the well and 2 ml of growth medium were added to each well with 5, 25, 50, 75, or 100 μM of CCG-222740 or CCG-203971 or 0.1% DMSO control. Digital photographs were obtained daily and lattice areas were measured using Image J software (http://rsb.info.nih.gov/ij/). The gel size at day 7 was assessed as a percentage of lattice area on day 0. Each experiment was performed as triplicate gels per condition and the experiment was repeated on three separate days.

[2] = test system: αSMA-positive human conjunctival fibroblasts; test: alpha smooth muscle actin staining; type: cell-based; settings: 48 hours, control 24.5%
Method: Human conjunctival fibroblasts were plated on 20 mm glass coverslips at 1 × 10^5 cells/well in 6-well plates (Falcon, Fisher Scientific). The next day, the fibroblasts were treated for 48 hours with 10 or 25 μM of CCG-222740 or CCG-203971 or 0.1% DMSO control in DMEM +10% FCS. The samples were fixed in 4% paraformaldehyde for 10 minutes, washed three times in PBS, and permeabilised in PBS 0.2% TX-100 (Triton X-100, Sigma) for 20 minutes. The samples were blocked with 5% fetal calf serum/5% bovine serum albumin (Sigma) for 1 hour. The samples were incubated overnight with the Cy3-labelled alpha smooth muscle actin antibody (1:1000, Sigma) in a wet chamber at 4 °C in the dark. The next day, the samples were washed twice in PBS 0.1% TX-100 and incubated with phalloidin (1:200) and DAPI (1:2000) for 1 hour at room temperature. The samples were then mounted on slides and imaged using an Upright780 Zeiss LSM confocal microscope. The proportion of fibroblasts with prominent αSMA-positive stress fibres was quantified visually from three random fields of view per treatment group in 3 independent experiments.

[3] = test system: New Zealand white rabbits; test: rabbit glaucoma filtration surgery model of scar tissue formation, clinical end-points; type: in vivo; settings: for increase in IOP survival: 100 μM subconjunctival, IOP remains below baseline; for increase in long-term success of surgery (bleb survival) compared to vehicle control: 100 μl of 100 μM subconjunctival, day 30; for mean day of bleb failure: CCG compounds 100 μM subconjunctival, MMC 0.2 mg/ml intraoperative, vehicle 14 days; for intraocular pressure (IOP): versus vehicle control or baseline
Source text: 24 female New Zealand white rabbits (2–2.4 kg, 12—14 weeks, Highgate, UK) underwent experimental glaucoma filtration surgery to the left eye under general anaesthesia, [28]. A superonasal fornix-based conjunctival flap was raised behind the limbus and a micro-vitreoretinal blade (20 gauge, 0.90 mm, Surgistar USA) was used to make a partial thickness scleral tunnel to the corneal stroma. A 22 gauge, 25 mm intravenous cannula was passed through the tunnel and the needle was removed once it was visible in the cornea. The cannula was advanced into the mid-pupillary area, trimmed at its scleral edge and fixed to the scleral surface using a 10–0 nylon suture (Alcon, USA). The conjunctival incision was closed using two interrupted 10–0 nylon sutures. In a randomised, prospective, single-masked observer study, the rabbits received either intraoperative 0.2 mg/ml mitomycin-C (MMC) [N = 6], or postoperative subconjunctival injections (100 μl) of 100 μM CCG-203971 [N = 6] or 100 μM CCG-222740 [N = 6] or vehicle control [N = 6] daily for the first nine days followed by twice weekly for three weeks, [33]. CCG-222740 and CCG-203971 were dissolved in 100% DMSO (Sigma, UK) at 10 mM and then diluted to 100 μM with sterile PBS. The same volume of DMSO was diluted with PBS for the vehicle control. For the MMC-treated group, a small corneal light shield sponge was soaked in 1 ml of 0.2 mg/ml MMC and applied over the conjunctiva for 3 minutes, and the area was then thoroughly washed with 50 ml of physiologic balanced salt solution (Alcon Laboratories, Inc., Fort Worth, TX). All the postoperative subconjunctival injections were given at the same site by a single-masked researcher.
(§1) The animals were evaluated twice weekly by a single-masked researcher. Bleb width and length were measured using calipers and intraocular pressures (IOP) were measured using a tonovet (Icare). The primary efficacy end-point was bleb survival as this is indicative of the long-term opening of the filtration pathway created during surgery. Bleb failure was defined as the appearance of a flat, scarred, and vascularised bleb associated with a deep anterior chamber. IOP survival, defined as when the intraocular pressure remains below the baseline IOP measurement, and bleb area were used as secondary end-points. Conjunctival vascularity was graded on a scale of 0 to 3 (0: avascular, 1: normal, 2: hyperaemic, 3: very hyperaemic).

[4] = test system: New Zealand white rabbits; test: local and systemic toxicity after glaucoma filtration surgery; type: in vivo; settings: rabbit; for Ki67 positive cells in the conjunctival epithelium: day 30; for corneal or conjunctival toxicities, anterior chamber inflammation / local toxicity, conjunctival epithelium: local delivery; for systemic toxicity: local delivery to the conjunctiva
Method: as §1
For the Ki67 staining, the sections were dewaxed, rehydrated, and microwaved for 15 minutes in sodium citrate buffer (pH 6) for antigen retrieval. After incubating in 1.6% hydrogen peroxide followed by 10% normal horse serum, the sections were incubated in mouse anti-Ki67 (M7248, Dako) diluted 1 in 25 in 1% BSA/PBS for 1 hour at room temperature. The sections were then incubated in biotinylated horse anti-mouse IgG (Vector) and Avidin-Biotin complex (Vector), developed in DAB (Vector), and counterstained in haematoxylin.
(§2) All animals were carefully evaluated for any signs of ocular or systemic toxicity during the study. At day 30, 100 µl of aqueous, 1 ml of vitreous, and 1 ml of venous blood were sampled on the rabbit eyes receiving CCG-222740 or CCG-203971 or vehicle control. The venous blood samples were left to clot for 30 minutes at room temperature, spun at 4000 rpm for 15 minutes at 4 °C, and the serum was collected as the supernatant. Samples were extracted in acetonitrile and the levels of CCG-222740 and CCG-203971 were measured in the aqueous, vitreous, and serum using liquid chromatography/mass spectrometry (LC/MS) in the Metabolomics Core at Michigan State University (East Lansing, MI).

[5] = drug levels in aqueous, vitreous and serum by LC/MS; type: in vivo; settings: rabbit, day 30, 48 hours after the last subconjunctival dose
Method: as §2

## O=C(Nc1ccc(Cl)cc1)C1CCCN(C(=O)c2cccc(-c3ccco3)c2)C1 (stereo not drawn) [CCG-203971]
[1]
  pIC50: 4.60
[2]; 10 μM
  percentage of αSMA-positive fibroblasts: 17.0%
[2]; 25 μM
  percentage of αSMA-positive fibroblasts: 8.6%
[3]
  bleb area compared to vehicle control: no statistically significant differences
  increase in IOP survival: 33%
  increase in long-term success of surgery (bleb survival) compared to vehicle control: 33%
  mean day of bleb failure: 22.5 days
  intraocular pressure (IOP): remained consistently lower than baseline measurements
[4]
  conjunctival vascularity: no abnormalities in conjunctival vascularity
  Ki67 positive cells in the conjunctival epithelium: normal Ki67 positive cells
  corneal or conjunctival toxicities, anterior chamber inflammation: no signs of corneal or conjunctival toxicities or anterior chamber inflammation
  local toxicity, conjunctival epithelium: did not cause any detectable local toxicity
  systemic toxicity: none of them showed any signs of systemic toxicity
[5]
  drug level in aqueous: below 20 nM
  drug level in serum: below 20 nM
  drug level in vitreous: below 20 nM

## O=C(Nc1ccc(Cl)cc1)C1CN(C(=O)c2cccc(-c3ccco3)c2)CC(F)(F)C1 (stereo not drawn) [CCG-222740]
[1]; human conjunctival fibroblasts
  potency in collagen contraction relative to CCG-203971: five times more potent than CCG-203971
[1]
  pIC50: 5.30
[2]; 10 μM
  percentage of αSMA-positive fibroblasts: 9.0%
[2]; 25 μM
  percentage of αSMA-positive fibroblasts: 2.2%
[3]
  bleb area compared to vehicle control: significantly larger bleb area
  increase in IOP survival: 67%
  increase in long-term success of surgery (bleb survival) compared to vehicle control: 67%
  mean day of bleb failure: 28.5 days
  intraocular pressure (IOP): remained consistently lower than baseline measurements
[4]
  conjunctival vascularity: no abnormalities in conjunctival vascularity
  Ki67 positive cells in the conjunctival epithelium: normal Ki67 positive cells
  corneal or conjunctival toxicities, anterior chamber inflammation: no signs of corneal or conjunctival toxicities or anterior chamber inflammation
  local toxicity, conjunctival epithelium: did not cause any detectable local toxicity
  systemic toxicity: none of them showed any signs of systemic toxicity
[5]
  drug level in aqueous: below 20 nM
  drug level in serum: below 20 nM
  drug level in vitreous: below 20 nM
